ChEMBL document CHEMBL3272037, “Antitumor agents. 21. A proposed mechanism for inhibition of cancer growth by tenulin and helenalin and related cyclopentenones” (J Med Chem, 1977)
In brackets after ≈: the same amount, converted by molar mass. Activity calls are given as the source filed them. No cut-off for these calls is given here.

Columns and labels:
P388 = test: Antitumor activity against mouse P388 cells allografted in DBA/2 mouse at 25 mg/kg/day, ip relative to control; format: functional; settings: route intraperitoneal
[1] = Cytotoxicity against human Hep2 cells; format: functional; settings: HEp-2, read-out: ED50 (the source's name)
Ehrlich [2] = test: Antitumor activity against mouse EAC cells allografted in CF1 mouse assessed as tumor growth inhibition at 33.3 mg/kg/day, ip after 7 days; format: functional; settings: 168 h, route intraperitoneal, read-out: TGI
W256 = test: Antitumor activity against rat Walker 256 cells allografted in Sprague-Dawley rat at 2.5 mg/kg/day, ip relative to control; format: functional; settings: route intraperitoneal
Ehrlich [3] = test: Antitumor activity against mouse EAC cells allografted in CF1 mouse assessed as survival at 33.3 mg/kg/day, ip after 7 days; format: functional, organism-based
[4] = Stability of the compound assessed as reactivity with L-cysteine by NMR analysis; format: physicochemical
[5] = Stability of the compound assessed as reactivity with reduced glutathione at 28 mg after 16 hrs by NMR analysis; format: physicochemical
[6] = Stability of the compound assessed as reactivity with histidine at 28 mg after 7 days by NMR analysis; format: physicochemical; settings: 168 h
[7] = Binding affinity to dGMP (unknown origin) at 0.015 ug at pH 7.2 after 24 hrs by UV-spectrophotometry
Ehrlich [8] = test: Antitumor activity against mouse EAC cells allografted in CF1 mouse assessed as DNA content at 0.125 mg/day administered from day 5 to day 7 measured on day 8 by UV-spectrophotometry relative to control; format: functional
[9] = Binding affinity to DNA (unknown origin) at 0.015 ug at pH 7.2 after 24 hrs by UV-spectrophotometry
Ehrlich [10] = test: Antitumor activity against mouse EAC cells allografted in CF1 mouse assessed as free lysosomal DNAse activity at 0.125 mg/day administered from day 5 to day 7 measured on day 8 relative to control; format: functional
[11] = Stability of the compound assessed as reactivity with oxidized glutathione at 10 mg after 4 hrs by NMR analysis; format: physicochemical
Ehrlich [12] = test: Antitumor activity against mouse EAC cells allografted in CF1 mouse assessed as cell viability at 0.125 mg/day administered from day 5 to day 7 measured on day 8 by trypan blue assay relative to control; format: functional, cell-based
[13] = Binding affinity to dATP (unknown origin) at 0.015 ug by UV-spectrophotometry
Ehrlich [14] = test: Antitumor activity against mouse EAC cells allografted in CF1 mouse assessed as ascitocrit count per mililitre of fluid at 0.125 mg/day administered from day 5 to day 7 measured on day 8 by hemocytometry relative to control; format: functional
Ehrlich [15] = test: Antitumor activity against mouse EAC cells assessed as tissue SH stimulation at 0.6 mg measured on day 8 by Ellman method relative to control; format: functional
[16] = Stability of the compound assessed as reactivity with L-cysteine at 10 mg after 4 hrs by NMR analysis; format: physicochemical
Ehrlich [17] = test: Antitumor activity against mouse EAC cells allografted in CF1 mouse assessed as 3',5' cAMP level at 0.125 mg/day administered from day 5 to day 7 measured on day 8 by RIA relative to control; format: functional
[18] = Binding affinity to dGMP (unknown origin) by NMR analysis
Ehrlich [19] = test: Antitumor activity against mouse EAC cells allografted in CF1 mouse assessed as [gamma-32P] incorporation into nonhistone at 0.125 mg/day administered from day 5 to day 7 measured on day 8 relative to control; format: functional
Ehrlich [20] = test: Antitumor activity against mouse EAC cells allografted in CF1 mouse assessed as nuclear DNA polymerase activity at 0.125 mg/day administered from day 5 to day 7 measured on day 8 relative to control; format: functional
Ehrlich [21] = test: Antitumor activity against mouse EAC cells assessed as nuclear DNA polymerase activity at 0.6 mg measured on day 8 relative to control; format: functional
Ehrlich [22] = test: Antitumor activity against mouse EAC cells allografted in CF1 mouse assessed as [gamma-32P] incorporation into histone at 0.125 mg/day administered from day 5 to day 7 measured on day 8 relative to control; format: functional
[23] = Stability of the compound assessed as reactivity with reduced glutathione at 10 mg after 4 hrs by NMR analysis; format: physicochemical
[24] = Binding affinity to dAMP (unknown origin) at 0.015 ug by UV-spectrophotometry
Ehrlich [25] = test: Antitumor activity against mouse EAC cells allografted in CF1 mouse assessed as chromatin protein content at 0.125 mg/day administered from day 5 to day 7 measured on day 8 relative to control; format: functional
[26] = Binding affinity to dGTP (unknown origin) at 0.015 ug at pH 7.2 after 24 hrs by UV-spectrophotometry
Ehrlich [27] = test: Antitumor activity against mouse EAC cells allografted in CF1 mouse assessed as [methyl-14C]thymidine incorporation to DNA at 0.125 mg/day administered from day 5 to day 7 measured on day 8 by scintillation counting analysis relative to control; format: functional
Ehrlich [28] = test: Antitumor activity against mouse EAC cells allografted in CF1 mouse assessed as DNA content at 0.25 mg/day administered from day 5 to day 7 measured on day 8 by UV-spectrophotometry relative to control; format: functional
Ehrlich [29] = test: Antitumor activity against mouse EAC cells allografted in CF1 mouse assessed as 3',5' cAMP level at 0.25 mg/day administered from day 5 to day 7 measured on day 8 by RIA relative to control; format: functional
Ehrlich [30] = test: Antitumor activity against mouse EAC cells allografted in CF1 mouse assessed as chromatin protein content at 0.25 mg/day administered from day 5 to day 7 measured on day 8 relative to control; format: functional
Ehrlich [31] = test: Antitumor activity against mouse EAC cells allografted in CF1 mouse assessed as [methyl-14C]thymidine incorporation to DNA at 0.25 mg/day administered from day 5 to day 7 measured on day 8 by scintillation counting analysis relative to control; format: functional
Ehrlich [32] = test: Antitumor activity against mouse EAC cells allografted in CF1 mouse assessed as free lysosomal DNAse activity at 0.25 mg/day administered from day 5 to day 7 measured on day 8 relative to control; format: functional
Ehrlich [33] = test: Antitumor activity against mouse EAC cells allografted in CF1 mouse assessed as ascitocrit count per mililitre of fluid at 0.25 mg/day administered from day 5 to day 7 measured on day 8 by hemocytometry relative to control; format: functional
Ehrlich [34] = test: Antitumor activity against mouse EAC cells allografted in CF1 mouse assessed as cell viability at 0.25 mg/day administered from day 5 to day 7 measured on day 8 by trypan blue assay relative to control; format: functional, cell-based
Ehrlich [35] = test: Antitumor activity against mouse EAC cells allografted in CF1 mouse assessed as nuclear DNA polymerase activity at 0.25 mg/day administered from day 5 to day 7 measured on day 8 relative to control; format: functional
Ehrlich [36] = test: Antitumor activity against mouse EAC cells allografted in CF1 mouse assessed as [gamma-32P] incorporation into histone at 0.25 mg/day administered from day 5 to day 7 measured on day 8 relative to control; format: functional

Which T/C (P388) does the source give for `C[C@@H]1C[C@H]2OC(=O)[C@@H](C)[C@H]2[C@H](O)[C@]2(C)C(=O)C=C[C@@H]12` here?
The T/C was 134%.

And the EC50 [1]?
Its EC50 is 0.814 µg/mL (≈ 3.08 µM).

And the inhibition in vivo at 33.3 mg/kg/day (Ehrlich [2])?
The inhibition in vivo at 33.3 mg/kg/day was 100%.

What about the T/C (W256) of the same compound?
Its T/C is 207%.

And the Survival (Ehrlich [3])?
The Survival was “Active”.

Which results are given for `C[C@@H]1C[C@@H]2OC(=O)[C@]3(C)[C@@H]2[C@@H](OC3(C)O)[C@]2(C)C(=O)CC(SC[C@H](N)C(=O)O)[C@@H]12` (stereo partly drawn)?
EC50 [1]: 13.7 µg/mL (≈ 32 µM); inhibition in vivo at 33.3 mg/kg/day (Ehrlich [2]): 15.8%; Survival (Ehrlich [3]): Active

What does the source list for `O=C1C=CCC1`?
Stability [4]: Stable; Stability [5]: Stable; EC50 [1]: 50 µg/mL (≈ 609 µM); Stability [6]: Unstable; inhibition in vivo at 33.3 mg/kg/day (Ehrlich [2]): 74.8%; T/C (W256): 188%; Survival (Ehrlich [3]): Active

With `C=C1C(=O)O[C@@H]2C[C@@H](C)[C@@H]3C=CC(=O)[C@@]3(C)[C@@H](O)[C@H]12` [HELENALIN] as the compound, how does the Activity [7] read?
Its Activity is “inactive”.

And the Activity (Ehrlich [8])?
Its Activity is 66%.

What about the Activity [9] of the same compound?
The Activity was “inactive”.

And the Activity (Ehrlich [10])?
The Activity was 25%.

And the Stability [11]?
The Stability was “Unstable”.

And the Activity (Ehrlich [12])?
Its Activity is “inactive”.

What about the Activity [13] of the same compound?
The Activity was “inactive”.

And the Activity (Ehrlich [14])?
The Activity was 70%.

And the T/C (P388)?
Its T/C is 127%.

What about the Activity (Ehrlich [15]) of the same compound?
The Activity was 183%.

And the Stability [16]?
The Stability was “Stable”.

What about the Activity (Ehrlich [17]) of the same compound?
The Activity was 292%.

What about the Activity [18] of the same compound?
Its Activity is “inactive”.

And the Activity (Ehrlich [19])?
The Activity was 63%.

And the Activity (Ehrlich [20])?
Its Activity is 52%.

And the EC50 [1]?
The EC50 was 0.1 µg/mL (≈ 0.381 µM).

And the Activity (Ehrlich [21])?
Its Activity is 35%.

What about the Activity (Ehrlich [22]) of the same compound?
Its Activity is 30%.

And the Stability [23]?
Its Stability is “Stable”.

And the Activity [24]?
The Activity was “inactive”.

What about the Activity (Ehrlich [25]) of the same compound?
The Activity was 83%.

What about the inhibition in vivo at 33.3 mg/kg/day (Ehrlich [2]) of the same compound?
Its inhibition in vivo at 33.3 mg/kg/day is 100%.

And the Activity [26]?
Its Activity is “inactive”.

And the T/C (W256)?
The T/C was 316%.

And the Activity (Ehrlich [27])?
Its Activity is 12%.

With `Sc1ncnc2nc[nH]c12` [MERCAPTOPURINE ANHYDROUS] as the compound, how does the inhibition in vivo at 33.3 mg/kg/day (Ehrlich [2]) read?
The inhibition in vivo at 33.3 mg/kg/day was 99.4%.

What about the Survival (Ehrlich [3]) of the same compound?
The Survival was “Active”.

With `C[C@@H]1C[C@@H]2OC(=O)[C@]3(C)[C@H]2[C@@H](OC3(C)O)[C@]2(C)C(=O)C=C[C@@H]12` (stereo partly drawn) [TENULIN] as the compound, how does the Activity (Ehrlich [28]) read?
Its Activity is 73%.

What about the Activity [7] of the same compound?
The Activity was “inactive”.

And the Activity (Ehrlich [29])?
The Activity was 236%.

And the Activity [9]?
The Activity was “inactive”.

What about the Activity (Ehrlich [30]) of the same compound?
Its Activity is 92%.

What about the Activity [13] of the same compound?
Its Activity is “inactive”.

What about the T/C (P388) of the same compound?
The T/C was 131%.

What about the Activity (Ehrlich [15]) of the same compound?
Its Activity is 203%.

What about the Activity (Ehrlich [31]) of the same compound?
The Activity was 9%.

What about the Activity (Ehrlich [32]) of the same compound?
The Activity was 29%.

And the Activity (Ehrlich [33])?
The Activity was 43%.

And the EC50 [1]?
Its EC50 is 4.5 µg/mL (≈ 14.7 µM).

What about the Activity (Ehrlich [21]) of the same compound?
The Activity was 88%.

What about the Activity [24] of the same compound?
Its Activity is “inactive”.

What about the Activity (Ehrlich [34]) of the same compound?
The Activity was “inactive”.

And the inhibition in vivo at 33.3 mg/kg/day (Ehrlich [2])?
Its inhibition in vivo at 33.3 mg/kg/day is 97.3%.

What about the Activity (Ehrlich [35]) of the same compound?
Its Activity is 71%.

What about the Activity (Ehrlich [36]) of the same compound?
The Activity was 17%.

And the Activity [26]?
Its Activity is “inactive”.

What about the T/C (W256) of the same compound?
The T/C was 266%.

What about the Survival (Ehrlich [3]) of the same compound?
The Survival was “Active”.
